We go through 2 compounds from patent publication US11548855B2, “Pyrazole amide compound and application thereof, and fungicide” (Shandong United Pesticide Industry Co. Ltd., priority 2017, dated 2023).

The test system of one assay is cucumber powdery mildew. The experiment in a line: Field trial, cucumber powdery mildew. The assay is classed as in vivo. The settings on record: 100 mg/L, sprayed twice. The procedure: I. Cucumber Powdery Mildew Test Method:
Spray method: Stein and leaf spray (Applicator: Xinkangda lithium battery electric sprayer).
Test crop: cucumber (cultivars: Tianjiao7)
(§1) The test was carried out in Shenyang, the test field was loam with rich organic matters and normal management of fertilizer and water, and no other pesticide was applied during the test.
The arrangement of the test plot was random block permutation; the area of the test plot: 15 m^2; repeat times: 3 times; spray time and frequency: period between Sep. 28, 2018 and Oct. 11, 2018, twice. Spray dosage: each treatment was repeated 3 times, the total water consumption was 8 L. No other pesticide was applied during the test. […] 15-20 days after the second treatment, the incidence of disease spots in each plot was investigated.
The incidence of disease spots in each plot was investigated by randomly selecting 4 samples/plot and 2 plants/samples, all leaves/plant, the incidence of the whole plant was recorded by counting the number of disease leaves and determining the incidence grade.
Grading standard (in units of leaves):
(§2) Grade 0: no leaf-spot area;
(§3) Grade 1: the ratio of leaf-spot area to leaf area is less than 5%;
Grade 3: the ratio of leaf-spot area to leaf area is between 6-10%;
Grade 5: the ratio of leaf-spot area to leaf area is between 11-20%;
Grade 7: the ratio of leaf-spot area to leaf area is between 21-40%;
Grade 9: the ratio of leaf-spot area to leaf area is more than 40%;
(§4) According to the relevant content of the “Guidelines for the field efficacy trials of pesticides of the People's Republic of China (PRC)”, the disease index was calculated according to the grading standard, and the control effect in a unit of % was calculated based on the disease index, and the test data of significance analysis was performed by using DPS evaluation system (DMRT).

Assay [1] relates to wheat powdery mildew. The experiment in a line: Field trial, wheat powdery mildew. It is filed as in vivo, Erysiphe graminis. The settings on record: 100 mg/L, sprayed once. The procedure: II. The Wheat Powdery Mildew Test Method:
Spray method: Stein and leaf spraying (Applicator: Xinkangda lithium battery electric sprayer).
Test crops: wheat (cultivars: Liaochun 10)
as §1
The arrangement of the test plot was random block permutation; the area of the test plot: 15 m^2; repeat times: 3 times; spray time and frequency: Sep. 17, 2018, once. Spray dosage: each treatment was repeated 3 times, the total water consumption was 8 L. No other pesticide was applied during the test.
The incidence of disease spots in each plot was investigated by diagonal selecting 4 samples/plot and 20 plants/samples, and the first leaf below the flag leaf of each plant was investigated.
The grading standard of crop disease was as follows:
as §2, §3
Grade 3: the ratio of leaf-spot area to leaf area is between 6-25%;
Grade 5: the ratio of leaf-spot area to leaf area is between 26-50%;
Grade 7: the ratio of leaf-spot area to leaf area is between 51-75%;
Grade 9: the ratio of leaf-spot area to leaf area is between 76-100%;
as §4

In assay [2] the test system is wheat powdery mildew. The settings on record: cited from earlier work.
The test system of assay [3] is wheat powdery mildew. The note with it: cited from earlier work. This is another data set of the same source.

Take `CON(C(=O)c1cn(C)nc1C(F)F)C(C)Cc1c(Cl)cc(Cl)cc1Cl` (stereo not shown) [Pydiflumetofen]: the “Control effect (%) Cucumber powdery mildew” value in the assay on cucumber powdery mildew turned out to be 86.0%. The “Control effect (%) Wheat powdery mildew” value in the assay with wheat powdery mildew [1] was found to be 91.0%.
For the compound `CNC(=O)/C(=N/OC)c1ccccc1CO/N=C(C)/C=C/c1c(Cl)cccc1Cl` [fenaminstrobin], the “activity against wheat powdery mildew in greenhouse pot test” value with wheat powdery mildew [2] is reported as “extremely high activity”. Also, the “control effect in field test” value with wheat powdery mildew [3] is “worse”.
